Experimental data: US20030207924A1, “Compounds that modulate PPAR activity and methods of preparation” (priority 2002, published 2003)
Read-outs that look alike come from different tables or passages of the source.

Tests used:
hPPARβ chimeric receptor = target: T1, hPPARβ chimeric receptor (Homo sapiens, UniProt Q03181); assay: Transient transfection assay in HepG2 cells, Gal4-hPPARβ chimeric receptor, luciferase reporter (Test A); type: cell-based; conditions: for EC50-β (Hep G2-hBeta EC50): HepG2 cells, hPPARβ chimeric receptor, luciferase reporter, 24 hours
T1 construct: "expression plasmids encoding hPPARα, hPPARβ or mPPARγ chimeric receptors"
T1 sequence (Q03181 171-441 limits assumed): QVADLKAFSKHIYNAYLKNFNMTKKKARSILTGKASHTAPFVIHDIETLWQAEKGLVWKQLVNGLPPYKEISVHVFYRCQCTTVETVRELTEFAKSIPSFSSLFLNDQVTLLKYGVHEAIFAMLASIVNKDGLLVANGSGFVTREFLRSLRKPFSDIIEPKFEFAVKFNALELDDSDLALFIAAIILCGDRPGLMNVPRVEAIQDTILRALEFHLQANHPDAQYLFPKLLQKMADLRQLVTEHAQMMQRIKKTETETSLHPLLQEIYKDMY
Procedure: (§1) 1. Test A. Transient Transfections Assay Using the HepG2 Hepatoma Cell Line.
(§2) HepG2 cells were transiently transfected with an expression plasmids encoding hPPARα, hPPARβ or mPPARγ chimeric receptors and a reporter containing the yeast upstream activating sequence (UAS) upstream of the viral E1B promoter controlling a luciferase reporter gene. In addition, the plasmid pRSVβ-gal was used to control for transfection efficiency. HepG2 cells were grown in DMEM supplemented with 10% FBS and […] non-essential amino acid. On the first day, cells were split into 100 mm dishes at 2.5×10^6/dish and incubated overnight at 37° C./5% CO2. On the second day the cells were transiently transfected with plasmid DNA encoding a chimeric receptor, the luciferase reporter gene; and β-gal. For each 100 mm dish, 15 μg of lucifease reporter (PG5E1b) DNA, 15 μg of Gal4-PPAR chimeric receptor DNA, and 1.5 μg of β-gal plasmid DNA were mixed with 1.4 ml of opti-MEM in the tube. 28 μl of LipoFectamine-2000 reagent was added to 1.4 ml of opti-MEM in the tube, and incubate for 5 min at RT. The diluted Lipofectamine-2000 reagent was combined with the DNA mixture, and incubate for 20 min at RT. After fresh medium was added to each 100 mm dish of cells, 2.8 ml of Lipofectamine2000-DNA mixture was added dropwise to the 100 mm dish containing 14 ml of medium, and incubate 37° C. overnight. On day three cells were trypsinized off the 100 mm dishes and re-plated on 96 well plates. Cells were plated at 2.5×10^4 cells per well in 150 μl of media and 50 μl of compound diluted by media was added. The test compounds added were in the range from 50 μM to 50 pM. After addition of compounds, the plates were incubated at 37° C. for 24 hours. Subsequently cells were washed with once with 100 μl of PBS, lysed, and processed for measuring luciferase and β-gal activity using Dual-Light luciferase kit from Tropix®, according to the manufacturer's recommendations, on an EG&G Bethold MicroLumat LB96P luminometer. EC50 values were obtained using the GraphPad Prism™ program.

hPPARα chimeric receptor = target: T2, hPPARα chimeric receptor (Homo sapiens, UniProt Q07869); assay: Transient transfection assay in HepG2 cells, Gal4-hPPARα chimeric receptor, luciferase reporter (Test A); type: cell-based
T2 construct: "expression plasmids encoding hPPARα, hPPARβ or mPPARγ chimeric receptors"
T2 sequence (Q07869 200-468 limits assumed): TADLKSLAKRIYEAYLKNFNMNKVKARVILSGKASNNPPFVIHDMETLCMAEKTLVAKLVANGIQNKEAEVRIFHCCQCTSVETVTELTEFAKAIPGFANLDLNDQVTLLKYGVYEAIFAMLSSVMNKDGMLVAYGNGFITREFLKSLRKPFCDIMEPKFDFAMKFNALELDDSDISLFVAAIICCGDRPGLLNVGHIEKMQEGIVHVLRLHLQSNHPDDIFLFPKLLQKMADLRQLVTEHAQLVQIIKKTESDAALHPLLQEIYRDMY
Procedure: as §1
as §2, with “program. […] Accordingly, the compounds of the present invention should find considerable therapeutic applications for hypercholesterolemia and hyperlipidemia.” for “program.”

[1] = HepG2 cells, hPPARα chimeric receptor, luciferase reporter, 24 hours, read-out: EC50-α (Hep G2-hAlpha EC50)

EC50 (hPPARβ chimeric receptor) [µM] | EC50 (hPPARα chimeric receptor; [1]) [µM] | EC50 (hPPARα chimeric receptor) [µM] | Compound | EC50-β (Hep G2-hBeta EC50) (hPPARβ chimeric receptor) [µM]
0.0234 | 0.161 |  | Cc1cc(SCc2sc(-c3ccc(C(F)(F)F)cc3)nc2C)cc(C)c1OCC(=O)O [Example 4, {2,6-Dimethyl-4-[4-methyl-2-(4-trifluoromethyl-phenyl)-thiazol-5-ylmethylsulfanyl]-phenoxy}-acetic acid] | 
0.303 | 0.135 |  | Cc1nc(-c2ccc(C(F)(F)F)cc2)sc1CSc1ccc([C@@H]2CC2C(=O)O)cc1 (stereo in doubt) [Example 12, 2-{4-[4-Methyl-2-(4-trifluoromethyl-phenyl)-thiazol-5-ylmethylsulfanyl]-phenyl}-cyclopropanecarboxylic acid] | 
1.28 | 0.538 |  | Cc1cc(SCc2sc(-c3ccc(C(F)(F)F)cc3)nc2C)c(C(C)C)cc1OCC(=O)O [Example 3, {5-Isopropyl-2-methyl-4-[4-methyl-2-(4-trifluoromethyl-phenyl)-thiazol-5-ylmethylsulfanyl]-phenoxy}-acetic acid] | 
0.0488 | 0.507 |  | Cc1nc(-c2ccc(C(F)(F)F)cc2)sc1CSc1ccc(C(C)(C)C(=O)O)cc1 [Example 11, 2-Methyl-2-{4-[4-methyl-2-(4-trifluoromethyl-phenyl)-thiazol-5-ylmethylsulfanyl]-phenyl}-propionic acid] | 
 |  |  | COc1cc(CN2CCCC2C(=O)O)ccc1SCc1sc(-c2ccc(C(F)(F)F)cc2)nc1C (stereo not drawn) [Example 29] | 2000
0.803 |  |  | Cc1nc(-c2ccc(C(F)(F)F)cc2)sc1CSc1ccc(C(C)(C)CC(=O)O)cc1 [Example 18, 3-Methyl-3-{4-[4-methyl-2-(4-trifluoromethyl-phenyl)-thiazol-5-ylmethylsulfanyl]-phenyl}-butyric acid] | 
0.105 | 2.05 |  | Cc1cc(SCc2sc(-c3ccc(C(F)(F)F)cc3)nc2C)c(Cl)cc1OCC(=O)O [Example 31, {5-Chloro-2-methyl-4-[4-methyl-2-(4-trifluoromethyl-phenyl)-thiazol-5-ylmethylsulfanyl]-phenoxy}-acetic acid] | 
0.0144 | 0.042 |  | Cc1cc(SCc2sc(-c3ccc(C(F)(F)F)cc3)nc2C)c(C)cc1OCC(=O)O [Example 1, {2,5-Dimethyl-4-[4-methyl-2-(4-trifluoromethyl-phenyl)-thiazol-5-ylmethylsulfanyl]-phenoxy}-acetic acid] | 
1.95 | 1.23 |  | Cc1nc(-c2ccc(C(F)(F)F)cc2)sc1CSc1ccc(OCCC(=O)O)cc1 [Example 16, 3-{4-[4-Methyl-2-(4-trifluoromethyl-phenyl)-thiazol-5-ylmethylsulfanyl]-phenoxy}-propionic acid] | 
1.24 | 1.39 |  | COc1cc(SCc2sc(-c3ccc(C(F)(F)F)cc3)nc2C)c(C)cc1OCC(=O)O [Example 6, {2-Methoxy-5-methyl-4-[4-methyl-2-(4-trifluoromethyl-phenyl)-thiazol-5-ylmethylsulfanyl]-phenoxy}-acetic acid] | 
 |  |  | CC(=O)Nc1cc(OCC(=O)O)c(C)cc1SCc1sc(-c2ccc(C(F)(F)F)cc2)nc1C [Example 25, 2-[5-(acetylamino)-2-methyl-4-({4-methyl-2-[4-(trifluoromethyl)phenyl](1,3-thiazol-5-yl)}methylthio)phenoxy]acetic acid] | 2000
1.12 | 1.54 |  | COc1cc(OC)c(SCc2sc(-c3ccc(C(F)(F)F)cc3)nc2C)cc1CCC(=O)O [Example 19, 3-{2,4-Dimethoxy-5-[4-methyl-2-(4-trifluoromethyl-phenyl)-thiazol-5-ylmethylsulfanyl]-phenyl}-propionic acid] | 
0.0453 | 0.84 |  | COc1cc(OCC(=O)O)cc(C)c1SCc1sc(-c2ccc(C(F)(F)F)cc2)nc1C [Example 8, {3-Methoxy-5-methyl-4-[4-methyl-2-(4-trifluoromethyl-phenyl)-thiazol-5-ylmethylsulfanyl]-phenoxy}-acetic acid] | 
 |  |  | Cc1nc(-c2ccc(C(F)(F)F)cc2)sc1CSc1ccc(C2CCC(CC(=O)O)CC2)cc1 (stereo not drawn) [Example 33, (4-{4-[4-Methyl-2-(4-trifluoromethyl-phenyl)-thiazol-5-ylmethylsulfanyl]-phenyl}-cyclohexyl)-acetic acid] | 2000
0.361 | 1.23 |  | CCc1cc(OCC(=O)O)c(C)cc1SCc1sc(-c2ccc(C(F)(F)F)cc2)nc1C [Example 2, {5-Ethyl-2-methyl-4-[4-methyl-2-(4-trifluoromethyl-phenyl)-thiazol-5-ylmethylsulfanyl]-phenoxy}-acetic acid] | 
0.0023 | 0.121 |  | COc1cc(OCC(=O)O)c(C)cc1SCc1sc(-c2ccc(C(F)(F)F)cc2)nc1C [Example 5, {5-Methoxy-2-methyl-4-[4-methyl-2-(4-trifluoromethyl-phenyl)-thiazol-5-ylmethylsulfanyl]-phenoxy}-acetic acid] | 
0.649 |  | 0.625 | COCc1cc(OCC(=O)O)c(C)cc1SCc1sc(-c2ccc(C(F)(F)F)cc2)nc1C [Example 32, 2-[5-(methoxymethyl)-2-methyl-4-({4-methyl-2-[4-(trifluoromethyl)phenyl](1,3-thiazol-5-yl)}methylthio)phenoxy]acetic acid] | 
0.0349 | 0.146 |  | COc1cc(SCc2sc(-c3ccc(C(F)(F)F)cc3)nc2C)c(OC)cc1CCC(=O)O [Example 20, 3-{2,5-Dimethoxy-4-[4-methyl-2-(4-trifluoromethyl-phenyl)-thiazol-5-ylmethylsulfanyl]-phenyl}-propionic acid] | 
1.25 | 0.442 |  | COc1cc(OC)c(SCc2sc(-c3ccc(C(F)(F)F)cc3)nc2C)cc1CC(=O)O [Example 21, {2,4-Dimethoxy-5-[4-methyl-2-(4-trifluoromethyl-phenyl)-thiazol-5-ylmethylsulfanyl]}-acetic acid] | 

Compound | EC50 (hPPARβ chimeric receptor) [µM] | EC50 (hPPARα chimeric receptor; [1]) [µM] | EC50 (hPPARα chimeric receptor) [µM] | EC50-β (Hep G2-hBeta EC50) (hPPARβ chimeric receptor) [µM]
Cc1nc(-c2ccc(C(F)(F)F)cc2)sc1CSc1ccc(CC(C(=O)O)n2cccc2)cc1 (stereo not drawn) [Example 24, 3-{4-[4-Methtyl-2-(4-trifluoromethyl-phenyl)-thiazol-5-ylmethylsulfanyl]-phenyl}-2-pyrrol-1-yl-propionic acid] |  | 2000 |  | 2000
